Values joined by “and” are separate entries in the source; they are usually repeats but may differ in a detail not shown here. Equal entries are not always repeated.
What was measured:
[1] = biological target: Splicing factor 3B subunit 1 / PHD finger-like domain-containing protein 5A (Homo sapiens, UniProt O75533+Q7RTV0); assay: VEGF-PLAP; settings: pH 7.8; 4 °C
From the text: Placental alkaline phosphatase (PLAP) reporter assay controlled by VEGF promoter (VEGF-PLAP)

[2] = biological target: T1, Splicing factor 3B subunit 3 (Homo sapiens, UniProt Q15393); assay: WiDr; settings: pH 7.8; 4 °C
T1 sequence (Q15393 whole entry): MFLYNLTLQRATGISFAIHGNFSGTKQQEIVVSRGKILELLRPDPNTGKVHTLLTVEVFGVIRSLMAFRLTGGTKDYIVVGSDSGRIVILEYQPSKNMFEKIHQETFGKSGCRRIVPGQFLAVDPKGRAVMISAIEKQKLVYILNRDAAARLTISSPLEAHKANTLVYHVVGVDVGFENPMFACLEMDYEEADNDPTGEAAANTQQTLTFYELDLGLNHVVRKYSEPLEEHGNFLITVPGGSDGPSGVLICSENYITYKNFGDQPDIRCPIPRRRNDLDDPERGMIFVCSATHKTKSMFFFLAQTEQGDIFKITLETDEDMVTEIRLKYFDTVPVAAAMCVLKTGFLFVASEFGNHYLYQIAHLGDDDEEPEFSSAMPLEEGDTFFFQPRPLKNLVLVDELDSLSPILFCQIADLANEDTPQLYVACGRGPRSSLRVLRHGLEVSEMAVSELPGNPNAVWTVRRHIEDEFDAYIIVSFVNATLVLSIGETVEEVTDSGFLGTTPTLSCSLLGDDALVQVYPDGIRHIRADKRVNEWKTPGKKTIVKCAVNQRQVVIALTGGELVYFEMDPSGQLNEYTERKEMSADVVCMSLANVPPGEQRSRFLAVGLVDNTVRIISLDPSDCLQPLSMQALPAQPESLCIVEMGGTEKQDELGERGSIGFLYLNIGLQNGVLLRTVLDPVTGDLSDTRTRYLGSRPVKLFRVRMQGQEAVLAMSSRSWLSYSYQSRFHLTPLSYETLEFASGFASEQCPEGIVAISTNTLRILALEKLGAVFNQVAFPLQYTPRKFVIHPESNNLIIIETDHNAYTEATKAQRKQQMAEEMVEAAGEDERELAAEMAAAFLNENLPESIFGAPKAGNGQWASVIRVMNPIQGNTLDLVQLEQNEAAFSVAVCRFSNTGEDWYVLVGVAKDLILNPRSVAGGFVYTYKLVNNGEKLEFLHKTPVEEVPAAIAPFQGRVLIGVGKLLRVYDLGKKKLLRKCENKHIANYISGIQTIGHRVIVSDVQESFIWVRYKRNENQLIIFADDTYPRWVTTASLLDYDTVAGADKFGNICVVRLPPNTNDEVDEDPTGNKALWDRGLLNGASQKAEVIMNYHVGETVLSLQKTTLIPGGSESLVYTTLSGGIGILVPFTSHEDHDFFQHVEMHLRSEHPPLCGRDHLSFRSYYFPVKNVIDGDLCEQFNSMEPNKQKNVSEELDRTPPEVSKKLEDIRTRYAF
From the text: Cell proliferation assay using WiDr

Splicing factor 3B subunit 1 / PHD finger-like domain-containing protein 5A, sequence (O75533 whole entry, the tested form may be a part): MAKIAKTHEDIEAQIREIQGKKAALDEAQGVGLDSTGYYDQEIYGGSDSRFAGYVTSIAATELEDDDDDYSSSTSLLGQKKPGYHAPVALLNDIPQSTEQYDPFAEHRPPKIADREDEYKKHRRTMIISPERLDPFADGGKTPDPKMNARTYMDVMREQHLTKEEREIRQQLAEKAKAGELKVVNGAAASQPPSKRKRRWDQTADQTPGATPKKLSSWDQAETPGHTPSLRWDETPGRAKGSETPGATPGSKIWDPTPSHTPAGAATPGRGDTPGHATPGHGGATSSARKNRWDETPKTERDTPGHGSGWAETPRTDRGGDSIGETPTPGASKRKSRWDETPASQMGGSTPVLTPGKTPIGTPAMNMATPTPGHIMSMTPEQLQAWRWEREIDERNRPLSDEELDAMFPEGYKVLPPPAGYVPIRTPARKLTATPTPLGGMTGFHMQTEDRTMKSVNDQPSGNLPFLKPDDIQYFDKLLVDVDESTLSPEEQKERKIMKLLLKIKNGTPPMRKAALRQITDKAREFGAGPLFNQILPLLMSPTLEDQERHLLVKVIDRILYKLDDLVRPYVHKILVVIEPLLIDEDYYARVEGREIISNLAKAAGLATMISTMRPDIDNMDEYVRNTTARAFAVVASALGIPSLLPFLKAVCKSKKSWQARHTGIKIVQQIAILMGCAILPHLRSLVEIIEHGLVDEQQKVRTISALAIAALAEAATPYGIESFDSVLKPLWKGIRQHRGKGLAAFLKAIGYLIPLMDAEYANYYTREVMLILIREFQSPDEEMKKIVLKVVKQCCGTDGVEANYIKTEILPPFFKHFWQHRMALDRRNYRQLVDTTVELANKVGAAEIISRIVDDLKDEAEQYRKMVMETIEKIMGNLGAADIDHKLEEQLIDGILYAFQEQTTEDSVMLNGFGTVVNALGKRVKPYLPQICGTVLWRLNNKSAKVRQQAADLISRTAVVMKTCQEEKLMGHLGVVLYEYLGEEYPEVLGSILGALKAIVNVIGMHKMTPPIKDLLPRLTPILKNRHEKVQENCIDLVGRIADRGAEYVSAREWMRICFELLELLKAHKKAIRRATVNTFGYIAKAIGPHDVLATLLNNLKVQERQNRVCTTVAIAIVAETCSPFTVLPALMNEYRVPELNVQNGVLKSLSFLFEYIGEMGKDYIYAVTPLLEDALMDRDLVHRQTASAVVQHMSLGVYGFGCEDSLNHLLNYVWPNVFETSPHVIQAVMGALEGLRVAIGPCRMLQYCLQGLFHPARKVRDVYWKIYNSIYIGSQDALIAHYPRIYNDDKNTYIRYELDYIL
Splicing factor 3B subunit 1 / PHD finger-like domain-containing protein 5A, sequence (Q7RTV0 2-110 limits assumed): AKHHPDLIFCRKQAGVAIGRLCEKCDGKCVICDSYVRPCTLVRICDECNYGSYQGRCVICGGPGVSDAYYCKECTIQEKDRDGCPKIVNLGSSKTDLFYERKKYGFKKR

Row | SMILES | EC50 [1] | EC50 [2] [µM]
1 | CC[C@H](O)[C@@H](C)[C@H]1O[C@@H]1C[C@@](C)(O)/C=C/C=C(\C)[C@H]1OC(=O)C[C@H](O)CC[C@@](C)(O)[C@@H](OC(C)=O)/C=C/[C@@H]1C [(3R,6R,7S,8E,10S,11S,12E,14E,16R,18R,19R,20R,21S)-7-acetoxy-3,6,16,21-tetrahydroxy-6,10,12,16,20-pentamethyl-18,19-epoxytricosa-8,12,14-triene-11-olide] | 0.0043 µM | 0.006
2 | CC[C@H](O)[C@@H](C)[C@H]1O[C@@H]1C[C@H](C)/C=C/C=C(\C)[C@H]1OC(=O)C[C@H](O)CC[C@@](C)(O)[C@@H](OC(=O)NCCCC[C@H](NC(=O)c2ccc(C3(C(F)(F)F)N=N3)cc2)C(=O)N(C)CCN(C)C(=O)CCCC[C@H]2SC[C@H]3NC(=O)N[C@H]32)/C=C/[C@@H]1C [CID1620213] |  | 0.595
3 | CCNC(=O)O[C@H]1/C=C/[C@H](C)[C@@H](/C(C)=C/C=C/[C@@H](C)C[C@H]2O[C@@H]2[C@H](C)[C@@H](O)CC)OC(=O)C[C@H](O)CC[C@@]1(C)O [CID16202133] | 0.0049 µM | 0.0061
4 | CC[C@H](O)[C@@H](C)[C@H]1O[C@@H]1C[C@H](C)/C=C/C=C(\C)[C@H]1OC(=O)C[C@H](O)CC[C@@](C)(O)[C@@H](OC(=O)NCCOCCOCCNC(=O)CCCCC2=[N+]3C(=Cc4c(C)cc(C)n4[B-]3(F)F)C=C2)/C=C/[C@@H]1C [CID16202134] | 0.0784 µM and 0.645 µM | 0.0702
